Experimental data taken from patent US12390470B2, “1-methylxanthine-based bioactive composition and method of use thereof” (Ingenious Ingredients, LP, priority 2021, dated 2025).

Assays:
Format in all cases: in vivo
[1] = system: male Swiss Albino mice; experiment: Forelimb grip strength test
Procedure: (§1) Twenty-four 8-week-old male Swiss Albino mice were housed in an animal room at a constant temperature (22±3° C.) and humidity (30%-70%) under a 12:12 h light-dark cycle with standard laboratory diet (Purina 5L79, Rat and Mouse 18% protein; PMI Nutrition International, Brentwood, MO, USA). Distilled water was provided ad libitum. All animal experiments were reviewed and approved by the Institutional Animal Ethical Committee (IAEC) of Radiant Research Services Pvt. Ltd (Bangalore, India). All research was conducted in accordance with the guidelines of the committee for the purpose of control and supervision of experiments on animals.
After one week of acclimation, the animals were randomly divided by body weight into three groups (n=8 per group in each test) for oral treatment once a day, at approximately same time each day (±1 hour), for 28 consecutive days: (1) vehicle control or (2) 1-methylxanthine or (3) 1-methylxanthine plus paraxanthine. The dose administered to the mice was calculated using US Food and Drug Administration for human equivalence doses (HED), assuming a human weight of 60 kg. The following HED was used in this study: 100 mg 1-methylxanthine (Ingenious Ingredients, L.P Lewisville, TX, USA; mouse dose: 20.5 mg/kg bw/day), or 100 mg 1-methylxanthine (Ingenious Ingredients, L.P Lewisville, TX, USA; mouse dose: 20.5 mg/kg bw/day) plus 100 mg paraxanthine (ENFINITY™, Ingenious Ingredients, L.P Lewisville, TX, USA; mouse dose: 20.5 mg/kg bw/day). 0.5% Carboxy Methyl Cellulose sodium was used as vehicle and the test item formulations were prepared daily. […] Food intake was monitored daily while water intake was ad libitum. BW was recorded weekly. […]
The forelimb grip strength was measured on day 0 and day 28 by using a stainless-steel grill to assess muscle strength (Orchid Scientific & Innovative India Pvt Ltd, India). Grip strength was measured one hour after treatment. […] Each animal performed three independent trials and the mean of the three trials was calculated and recorded.

[2] = Organ weight (liver, heart), Example 1; conditions: mice, 28 days
Procedure: as §1
After one week of acclimation, the animals were randomly divided by body weight into three groups (n=8 per group in each test) for oral treatment once a day, at approximately same time each day (±1 hour), for 28 consecutive days: (1) vehicle control or (2) 1-methylxanthine or (3) 1-methylxanthine plus paraxanthine. The dose administered to the mice was calculated using US Food and Drug Administration for human equivalence doses (HED), assuming a human weight of 60 kg. […] Food intake was monitored daily while water intake was ad libitum. BW was recorded weekly. […]

[3] = Organ weight (liver, heart), Example 3; conditions: mice, 28 days
Procedure: as §1
After one week of acclimation, the animals were randomly divided by body weight into three groups (n=8 per group in each test) for oral treatment once a day, at approximately same time each day (±1 hour), for 28 consecutive days: (1) vehicle control or (2) 1-methylxanthine or (3) 1-methylxanthine plus paraxanthine. The dose administered to the mice was calculated using US Food and Drug Administration for human equivalence doses (HED), assuming a human weight of 60 kg. […] Food intake was monitored daily while water intake was ad libitum.

[4] = system: catalase; experiment: Catalase level in young and old rats
Procedure: as §1, with “young (6-8 Week) and twenty-four old (14-16 Months)” for “8-week-old male”, “Wistar rats” for “mice”
After one week of acclimation, the animals were randomly divided by body weight and age into six groups (n=8 per group in each test) for oral treatment once a day, at approximately same time each day (±1 hour), for 10 consecutive days: (1) vehicle control or (2) 1-methylxanthine or (3) 1-methylxanthine plus paraxanthine. The dose administered to the rat was calculated using US Food and Drug Administration for human equivalence doses (HED), assuming a human weight of 60 kg. […] Food intake was monitored daily while water intake was ad libitum. […] Body weight was recorded weekly. […]

## Cn1c(=O)[nH]c2nc[nH]c2c1=O [1-methylxanthine, 1-Methyl-3H-purine-2,6-dione]
[1]; baseline
  Forelimb grip strength: 91.1±1.3 gf
[1]; baseline to day 28
  changes in strength greater than control: 15.9%
[1]; day 28, oral 20.5 mg/kg bw/day each, 28 days, with exercise training
  Forelimb grip strength: 126.9±6.0 gf
[2]
  Heart weight: 189.13 ± 0.64 mg
  Liver weight: 1847.25 ± 47.92 mg
[3]
  Heart weight: 188.50 ± 3.12 mg
  Liver weight: 1850.88 ± 39.96 mg
[4]; old rats
  catalase levels: 32.78±1.26 U/mL
[4]; young rats
  catalase levels: 33.32±1.68 U/mL
